Experimental data as given in patent US10829452B2, “Histone methyltransferase inhibitors” (GLOBAL BLOOD THERAPEUTICS, INC., priority 2016, dated 2020).
Counter-ions that a name gives are not always drawn.

target: T1, G9a (Homo sapiens, UniProt Q96KQ7); assay: G9a AlphaLISA enzymatic activity assay; format: biochemical; conditions: 0.15 nM G9a, 15 uM S-adenosyl-methionine, 100 nM biotinylated histone 3 peptide (1-21), 1 hour at room temperature; read-out: G9a in (uM) (IC50, concentration that produced 50% inhibition)
T1 sequence (Q96KQ7 1-1210): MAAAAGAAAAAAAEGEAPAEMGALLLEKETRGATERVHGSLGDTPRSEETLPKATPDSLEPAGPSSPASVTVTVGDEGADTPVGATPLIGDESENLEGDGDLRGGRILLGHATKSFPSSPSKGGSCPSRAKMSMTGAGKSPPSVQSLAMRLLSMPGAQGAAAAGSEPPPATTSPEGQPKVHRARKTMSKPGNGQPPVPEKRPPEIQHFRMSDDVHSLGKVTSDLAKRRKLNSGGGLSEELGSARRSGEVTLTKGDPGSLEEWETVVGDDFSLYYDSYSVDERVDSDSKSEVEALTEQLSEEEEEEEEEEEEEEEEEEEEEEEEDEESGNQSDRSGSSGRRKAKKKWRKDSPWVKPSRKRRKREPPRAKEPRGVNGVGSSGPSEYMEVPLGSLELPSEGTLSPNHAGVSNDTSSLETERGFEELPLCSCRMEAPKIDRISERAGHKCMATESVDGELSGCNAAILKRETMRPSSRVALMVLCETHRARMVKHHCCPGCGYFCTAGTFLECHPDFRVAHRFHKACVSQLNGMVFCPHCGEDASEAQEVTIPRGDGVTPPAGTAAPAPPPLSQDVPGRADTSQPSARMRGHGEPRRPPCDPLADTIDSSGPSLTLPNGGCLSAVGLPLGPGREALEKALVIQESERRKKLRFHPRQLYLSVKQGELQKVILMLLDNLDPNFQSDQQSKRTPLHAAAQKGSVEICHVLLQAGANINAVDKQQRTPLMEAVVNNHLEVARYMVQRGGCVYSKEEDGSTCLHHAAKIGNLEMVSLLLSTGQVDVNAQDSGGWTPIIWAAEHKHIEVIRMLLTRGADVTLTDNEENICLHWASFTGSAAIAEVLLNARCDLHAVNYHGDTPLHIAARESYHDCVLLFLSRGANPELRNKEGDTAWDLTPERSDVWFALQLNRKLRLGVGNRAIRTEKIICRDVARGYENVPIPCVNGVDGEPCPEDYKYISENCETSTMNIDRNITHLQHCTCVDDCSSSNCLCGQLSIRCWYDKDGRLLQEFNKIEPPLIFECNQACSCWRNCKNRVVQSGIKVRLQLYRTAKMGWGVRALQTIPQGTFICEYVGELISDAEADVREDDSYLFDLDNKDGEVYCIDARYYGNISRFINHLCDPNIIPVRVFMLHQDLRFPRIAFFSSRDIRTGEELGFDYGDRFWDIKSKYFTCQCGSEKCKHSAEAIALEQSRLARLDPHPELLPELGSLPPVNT
Outline: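 Human G9a (0.15 nM) methylated 100 nM biotinylated histone H3(1-21) peptide with 15 uM SAM in Tris-HCl pH9 buffer with NaCl, Tween-20 and DTT, 1 h at room temperature. H3K9me2 was detected by AlphaLISA acceptor/streptavidin donor beads (20 ug/mL each); IC50 from percent inhibition across compound dilutions.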

Structure (SMILES) | IC50 [µM]
COc1cc2c3c(c(C)nc2cc1OCCCN1CCCC1)CCC(C)N3 (stereo not drawn) [Example 31, 1-[3-({9-methoxy-2,5-dimethyl-1H,2H,3H,4H-benzo[h]1,6-naphthyridin-8-yl}oxy)propyl]pyrrolidine trifluoroacetate] | 0.009
COc1cc2c3c(c(NC(C)C)nc2cc1OCCCN1CCCC1)CC(C)C3 (stereo not drawn) [Example 6, 8-methoxy-2-methyl-N-(propan-2-yl)-7-[3-(pyrrolidin-1-yl)propoxy]-1H,2H,3H-cyclopenta[c]quinolin-4-amine formate] | 0.027
CCCNc1nc2cc(OCCCN3CCCC3)c(OC)cc2c2c1CCC2 [Example 104, 8-methoxy-N-propyl-7-[3-(pyrrolidin-1-yl)propoxy]-1H,2H,3H-cyclopenta[c]quinolin-4-amine trifluoroacetate] | 0.02
